This passage reports MIC results from ChEMBL document CHEMBL1142199, “Caenorhabditis elegans as a model to determine fitness of antibiotic-resistant Salmonella enterica serovar typhimurium” (2007).

In general, MIC refers to the smallest concentration in the dilution series that meets the test's criterion for growth inhibition. A low value points to greater potency.

Holding throughout (format): functional, Salmonella enterica subsp. enterica serovar Typhimurium
Assay [1] concerns Salmonella typhimurium. Description: Antimicrobial activity against Salmonella enterica serovar Typhimurium JB1850 in Caenorhabditis elegans.
Assay [2] relates to Salmonella typhimurium. The assay is described as follows: Antimicrobial activity against Salmonella enterica serovar Typhimurium JB1855 in Caenorhabditis elegans.
Assay [3] deals with Salmonella typhimurium. The assay is described as follows: Antimicrobial activity against Salmonella enterica serovar Typhimurium SMP807 in Caenorhabditis elegans.
The test system of assay [4] is Salmonella typhimurium. Description: Antimicrobial activity against Salmonella enterica serovar Typhimurium SMP816 in Caenorhabditis elegans.
Assay [5] concerns Salmonella typhimurium. Description: Antimicrobial activity against Salmonella enterica serovar Typhimurium SMP972 in Caenorhabditis elegans.
Assay [6] has as its system Salmonella typhimurium. The assay is described as follows: Antimicrobial activity against Salmonella enterica serovar Typhimurium SMP973 in Caenorhabditis elegans.
Assay [7] has as its system Salmonella typhimurium. The assay is described as follows: Antimicrobial activity against Salmonella enterica serovar Typhimurium JB127 in Caenorhabditis elegans.
Assay [8] deals with Salmonella typhimurium. Description: Antimicrobial activity against Salmonella enterica serovar Typhimurium DA8340 in Caenorhabditis elegans.
In assay [9] the test system is Salmonella typhimurium. The assay is described as follows: Antimicrobial activity against Salmonella enterica serovar Typhimurium DA8325 in Caenorhabditis elegans.
The test system of assay [10] is Salmonella typhimurium. The assay is described as follows: Antimicrobial activity against Salmonella enterica serovar Typhimurium DA8326 in Caenorhabditis elegans.
Assay [11] concerns Salmonella typhimurium. The assay is described as follows: Antimicrobial activity against Salmonella enterica serovar Typhimurium JB393 in Caenorhabditis elegans.

Structures are written as SMILES. Values after ≈ are worked out from the molar mass of the structure shown.

Regarding `C/C(=C\C(=O)OCCCCCCCCC(=O)O)C[C@@H]1OC[C@H](C[C@@H]2O[C@H]2[C@@H](C)[C@H](C)O)[C@@H](O)[C@H]1O` [MUPIROCIN], the MIC against Salmonella typhimurium [1] and against Salmonella typhimurium [2] was more than 1020 µg/mL each time.

With `CO[C@H]1/C=C/O[C@@]2(C)Oc3c(C)c(O)c4c(O)c(c(/C=N/N5CCN(C)CC5)c(O)c4c3C2=O)NC(=O)/C(C)=C\C=C\[C@H](C)[C@H](O)[C@@H](C)[C@@H](O)[C@@H](C)[C@H](OC(C)=O)[C@@H]1C` [RIFAMPIN], the minimum inhibitory concentration (MIC) against Salmonella typhimurium [3] and against Salmonella typhimurium [4] was more than 256 µg/mL each time.

In the case of `CCn1cc(C(=O)O)c(=O)c2ccc(C)nc21` [NALIDIXIC ACID], the MIC was 64 µg/mL (≈ 276 µM) in the assay on Salmonella typhimurium [5] and more than 256 µg/mL in the assay on Salmonella typhimurium [6].

`CN[C@@H]1[C@H](O[C@H]2[C@H](O[C@H]3[C@H](O)[C@@H](O)[C@H](N=C(N)N)[C@@H](O)[C@@H]3N=C(N)N)O[C@@H](C)[C@]2(O)C=O)O[C@@H](CO)[C@H](O)[C@H]1O` [STREPTOMYCIN] displayed an MIC in the assay on Salmonella typhimurium [7] of more than 1020 µg/mL.

As for `CCCCC[C@H](CC(=O)NO)C(=O)N[C@H](C(=O)N1CCC[C@H]1CO)C(C)C` [ACTINONIN], the MIC in the assay on Salmonella typhimurium [8], with Salmonella typhimurium [9] and in the assay on Salmonella typhimurium [10] was more than 1020 µg/mL in each case.

`CC(=O)O[C@H]1C[C@@]2(C)[C@@H](C[C@@H](O)[C@H]3[C@@]4(C)CC[C@@H](O)[C@@H](C)[C@@H]4CC[C@@]32C)/C1=C(\CCC=C(C)C)C(=O)O` [FUSIDIC ACID] registered an MIC against Salmonella typhimurium [11] of 2400 µg/mL (≈ 4640 µM).
